According to ChEMBL document CHEMBL1201861, “Genomics of Drug Sensitity in Cancer screening data, Wellcome Trust Sanger Institute”:
Structures can show the parent of a compound that is named as a salt.

What was measured:
NBsusSR = assay: cells; assay type: functional, cell-based, Homo sapiens;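 also: growth inhibition of the human cell line, read out with a cell viability assay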
Description: SANGER: Inhibition of human NBsusSR cell growth in a cell viability assay.

ECC10 = assay: cells; assay type: functional, cell-based, Homo sapiens;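 also: growth inhibition of ECC10 cells, read out by a cell viability assay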
Description: SANGER: Inhibition of human ECC10 cell growth in a cell viability assay.

H9 = assay: cells; assay type: functional, cell-based, Homo sapiens
Description: SANGER: Inhibition of human H9 cell growth in a cell viability assay.

TGBC11TKB = assay: cells; assay type: functional, cell-based, Homo sapiens;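 also: growth inhibition of human TGBC11TKB cells, measured by a cell viability assay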
Description: SANGER: Inhibition of human TGBC11TKB cell growth in a cell viability assay.

BALL-1 = assay: cells; assay type: functional, cell-based, Homo sapiens;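 also: growth inhibition of BALL-1 cells, read out with a cell viability assay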
Description: SANGER: Inhibition of human BALL-1 cell growth in a cell viability assay.

SW900 = assay: cells; assay type: functional, cell-based, Homo sapiens;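 also: IC50 is the concentration that inhibits SW900 cell growth, measured by a cell viability assay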
Description: SANGER: Inhibition of human SW900 cell growth in a cell viability assay.

NCI-H2107 = assay: SANGER: Inhibition of human NCI-H2107 cell growth in a cell viability assay.; assay type: functional, cell-based
ECC12 = assay: cells; assay type: functional, cell-based; details: Homo sapiens
Description: SANGER: Inhibition of human ECC12 cell growth in a cell viability assay.

NCI-H128 = assay: SANGER: Inhibition of human NCI-H128 cell growth in a cell viability assay.; assay type: functional, cell-based
TT = assay: cells; assay type: functional, cell-based, Homo sapiens
Description: SANGER: Inhibition of human TT cell growth in a cell viability assay.

PLC-PRF-5 = assay: cells; assay type: functional, cell-based, Homo sapiens;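 also: growth inhibition of human PLC-PRF-5 cells, read out with a viability assay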
Description: SANGER: Inhibition of human PLC-PRF-5 cell growth in a cell viability assay.

MES-SA = assay: cells; assay type: functional, cell-based, Homo sapiens;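 also: growth inhibition of human MES-SA cells, read out with a cell viability assay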
Description: SANGER: Inhibition of human MES-SA cell growth in a cell viability assay.

DV-90 = assay: cells; assay type: functional, cell-based, Homo sapiens;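 also: Read-out is a viability assay, with IC50 reflecting the drop in DV-90 cell growth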
Description: SANGER: Inhibition of human DV-90 cell growth in a cell viability assay.

SNG-M = assay: cells; assay type: functional, cell-based, Homo sapiens
Description: SANGER: Inhibition of human SNG-M cell growth in a cell viability assay.

NCI-H1734 = assay: cells; assay type: functional, cell-based, Homo sapiens;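 also: growth inhibition of human NCI-H1734 cells, read out with a cell viability assay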
Description: SANGER: Inhibition of human NCI-H1734 cell growth in a cell viability assay.

RT-4 = assay: SANGER: Inhibition of human RT4 cell growth in a cell viability assay.; assay type: functional, cell-based
C-4-II = assay: SANGER: Inhibition of human C-4-II cell growth in a cell viability assay.; assay type: functional, cell-based
CCF-STTG1 = assay: cells; assay type: functional, cell-based, Homo sapiens;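 also: growth inhibition of human CCF-STTG1 cells, determined with a cell viability read-out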
Description: SANGER: Inhibition of human CCF-STTG1 cell growth in a cell viability assay.

Caov-3 cell line = assay: cells; assay type: functional, cell-based, Homo sapiens;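 also: cell growth inhibition read out by a viability assay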
Description: SANGER: Inhibition of human Caov-3 cell growth in a cell viability assay.

CP67-MEL = assay: SANGER: Inhibition of human CP67-MEL cell growth in a cell viability assay.; assay type: functional, cell-based
RH-18 = assay: cells; assay type: functional, cell-based, Homo sapiens;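 also: growth inhibition of human RH-18 cells, read out with a cell viability assay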
Description: SANGER: Inhibition of human RH-18 cell growth in a cell viability assay.

LU-135 = assay: cells; assay type: functional, cell-based, Homo sapiens
Description: SANGER: Inhibition of human LU-135 cell growth in a cell viability assay.

Compound	IC50 (NCI-H2107)	IC50 (NCI-H128)	IC50 (TT; Homo sapiens, TT)	IC50 (PLC-PRF-5; Homo sapiens, PLC-PRF-5)	IC50 (MES-SA; Homo sapiens, MES-SA)	IC50 (DV-90; Homo sapiens, DV-90)	IC50 (SNG-M; Homo sapiens, SNG-M)	IC50 (NCI-H1734; Homo sapiens, NCI-H1734)	IC50 (RT-4; Homo sapiens, RT-4)	IC50 (C-4-II; Homo sapiens, C-4-II)	IC50 (CCF-STTG1; Homo sapiens, CCF-STTG1)	IC50 (Caov-3 cell line; Homo sapiens, Caov-3)	IC50 (CP67-MEL)	other results
CN(C)C(=N)NC(=N)N [METFORMIN]														IC50 (NBsusSR; Homo sapiens, NBsusSR): 9190 µM; IC50 (ECC10; Homo sapiens, ECC10): 2280 µM; IC50 (H9; Homo sapiens, H9): 7140 µM; IC50 (TGBC11TKB; Homo sapiens, TGBC11TKB): > 20000 µM; IC50 (BALL-1; Homo sapiens, BALL-1): > 20000 µM; IC50 (SW900; Homo sapiens, SW900): 19300 µM
CC[C@H](CO)Nc1nc(NCc2ccccc2)c2ncn(C(C)C)c2n1 [SELICICLIB]	> 16 µM	> 16 µM												IC50 (ECC12): > 16 µM
Oc1ccc2ccccc2c1SSc1c(O)ccc2ccccc12			> 32 µM	> 32 µM	23.9 µM	> 32 µM	> 32 µM	> 32 µM	> 32 µM	> 32 µM	> 32 µM	> 32 µM		
CCC/C=C/C=C/C(=O)O[C@H]1/C(=C/C(=O)OC)C[C@H]2C[C@H]([C@@H](C)O)OC(=O)C[C@H](O)C[C@@H]3C[C@H](OC(C)=O)C(C)(C)[C@](O)(C[C@@H]4C/C(=C/C(=O)OC)C[C@H](/C=C/C(C)(C)[C@]1(O)O2)O4)O3 [BRYOSTATIN 1]			> 0.008 µM	> 0.008 µM	> 0.008 µM	> 0.008 µM	> 0.008 µM	> 0.008 µM	> 0.008 µM	> 0.008 µM	> 0.008 µM	> 0.008 µM		
COc1cc2ncn(-c3cc(OCc4ccccc4C(F)(F)F)c(C(N)=O)s3)c2cc1OC [GW843682X]	> 0.256 µM	> 0.256 µM											0.116 µM	
COC1=CC(c2cc3ccccc3[nH]2)=N/C1=C\c1[nH]c(C)cc1C [OBATOCLAX MESYLATE]			> 16 µM	1.15 µM	0.405 µM	1.76 µM	< 0.0625 µM	0.42 µM	1.6 µM	3.76 µM	0.926 µM	1.69 µM		
Cc1cc([N+](=O)[O-])ccc1NS(=O)(=O)c1cc(Cl)ccc1Cl			9.13 µM	1.17 µM	> 32 µM	1.94 µM	2.77 µM	8.73 µM	> 32 µM	6.37 µM	12.8 µM	> 32 µM		
CO[C@H]1C[C@@H]2CC[C@@H](C)[C@@](O)(O2)C(=O)C(=O)N2CCCC[C@H]2C(=O)O[C@H]([C@H](C)C[C@@H]2CC[C@@H](OC(=O)C(C)(CO)CO)[C@H](OC)C2)CC(=O)[C@H](C)/C=C(\C)[C@@H](O)[C@@H](OC)C(=O)[C@H](C)C[C@H](C)/C=C/C=C/C=C/1C [TEMSIROLIMUS]														IC50 (RH-18; Homo sapiens, Rh18): > 0.2 µM; IC50 (NBsusSR; Homo sapiens, NBsusSR): 0.0213 µM; IC50 (ECC10; Homo sapiens, ECC10): > 0.2 µM; IC50 (H9; Homo sapiens, H9): 0.00488 µM; IC50 (TGBC11TKB; Homo sapiens, TGBC11TKB): > 0.2 µM; IC50 (BALL-1; Homo sapiens, BALL-1): > 0.2 µM; IC50 (LU-135; Homo sapiens, LU-135): > 0.2 µM; IC50 (SW900; Homo sapiens, SW900): > 0.2 µM
C=C(c1ccc(C(=O)O)cc1)c1cc2c(cc1C)C(C)(C)CCC2(C)C [BEXAROTENE]			> 8 µM	> 8 µM	> 8 µM	> 8 µM	> 8 µM	> 8 µM	> 8 µM	> 8 µM	> 8 µM	> 8 µM		
Nc1cccc2c1CN(C1CCC(=O)NC1=O)C2=O (stereo not drawn) [LENALIDOMIDE]														IC50 (RH-18; Homo sapiens, Rh18): > 5 µM; IC50 (NBsusSR; Homo sapiens, NBsusSR): > 5 µM; IC50 (ECC10; Homo sapiens, ECC10): > 5 µM; IC50 (H9; Homo sapiens, H9): > 5 µM; IC50 (TGBC11TKB; Homo sapiens, TGBC11TKB): > 5 µM; IC50 (BALL-1; Homo sapiens, BALL-1): > 5 µM; IC50 (LU-135; Homo sapiens, LU-135): > 5 µM; IC50 (SW900; Homo sapiens, SW900): > 5 µM
CISPLATIN														IC50 (RH-18; rh-18): 353 µM; IC50 (NBsusSR; nbsussr): 1.33 µM; IC50 (ECC10; ecc10): 258 µM; IC50 (H9; h9): 3.65 µM; IC50 (TGBC11TKB; tgbc11tkb): 29.4 µM; IC50 (BALL-1; ball-1): 75.9 µM; IC50 (LU-135; lu-135): 33.8 µM; IC50 (SW900; sw900): 28.9 µM
COc1cccc2c1C(=O)c1c(O)c3c(c(O)c1C2=O)C[C@@](O)(C(=O)CO)C[C@@H]3O[C@H]1C[C@H](N)[C@H](O)[C@H](C)O1 [DOXORUBICIN]			> 1.02 µM	0.901 µM	0.0995 µM	0.329 µM	0.0183 µM	0.053 µM	> 1.02 µM	0.473 µM	0.0355 µM	0.406 µM		
CS(=O)(=O)c1ccc(C(=O)Nc2ccc(Cl)c(-c3ccccn3)c2)c(Cl)c1 [VISMODEGIB]														IC50 (RH-18; Homo sapiens, Rh18): > 10 µM; IC50 (NBsusSR; Homo sapiens, NBsusSR): > 10 µM; IC50 (TGBC11TKB; Homo sapiens, TGBC11TKB): > 10 µM; IC50 (BALL-1; Homo sapiens, BALL-1): > 10 µM; IC50 (LU-135; Homo sapiens, LU-135): > 10 µM; IC50 (SW900; Homo sapiens, SW900): > 10 µM
N[C@@H](CSC(c1ccccc1)(c1ccccc1)c1ccccc1)C(=O)O [S-TRITYL-L-CYSTEINE]	> 5.12 µM	> 5.12 µM											2.39 µM	
Cc1ccc(-c2c(C(=O)CCl)n(CCCO)c3ncnc(N)c23)cc1	> 4 µM	3.1 µM											> 4 µM	
CC(=O)O[C@H]1C(=O)[C@@]2(C)[C@H]([C@H](OC(=O)c3ccccc3)[C@]3(O)C[C@H](OC(=O)[C@H](O)[C@@H](NC(=O)c4ccccc4)c4ccccc4)C(C)=C1C3(C)C)[C@]1(OC(C)=O)CO[C@@H]1C[C@@H]2O [PACLITAXEL]	> 0.102 µM	> 0.102 µM											0.0681 µM	
BLEOMYCIN														IC50 (TT; tt): 59.2 µM; IC50 (PLC-PRF-5; plc-prf-5): 281 µM; IC50 (MES-SA; mes-sa): 1.67 µM; IC50 (DV-90; dv-90): 182 µM; IC50 (SNG-M; sng-m): 0.831 µM; IC50 (NCI-H1734; nci-h1734): 0.0174 µM; IC50 (RT-4; rt-4): 0.00586 µM; IC50 (C-4-II; c-4-ii): 0.381 µM; IC50 (CCF-STTG1; ccf-sttg1): 4.56 µM; IC50 (Caov-3 cell line; caov-3): 20.5 µM
O=C(O)c1ccc(-c2c[nH]c3ncc(-c4ccccc4)cc23)cc1C1CCCC1 [GSK-650394]			> 16 µM	> 16 µM	5.56 µM	> 16 µM	1.8 µM	> 16 µM	> 16 µM	13.9 µM	12.6 µM	> 16 µM		
Cc1cn(-c2cc(NC(=O)c3ccc(C)c(Nc4nccc(-c5cccnc5)n4)c3)cc(C(F)(F)F)c2)cn1 [NILOTINIB]														IC50 (RH-18; Homo sapiens, Rh18): > 2 µM; IC50 (NBsusSR; Homo sapiens, NBsusSR): > 2 µM; IC50 (ECC10; Homo sapiens, ECC10): > 2 µM; IC50 (H9; Homo sapiens, H9): > 2 µM; IC50 (TGBC11TKB; Homo sapiens, TGBC11TKB): > 2 µM; IC50 (BALL-1; Homo sapiens, BALL-1): > 2 µM; IC50 (LU-135; Homo sapiens, LU-135): > 2 µM; IC50 (SW900; Homo sapiens, SW900): > 2 µM
COc1cc(-c2nn([C@H]3CC[C@H](N4CCN(C(C)=O)CC4)CC3)c3ncnc(N)c23)ccc1NC(=O)c1cc2ccccc2n1C	> 5.12 µM	> 5.12 µM											> 5.12 µM	
Nc1ccn([C@@H]2O[C@H](CO)[C@@H](O)C2(F)F)c(=O)n1 [GEMCITABINE]			> 1.02 µM	> 1.02 µM	< 0.004 µM	> 1.02 µM	< 0.004 µM	0.0113 µM	> 1.02 µM	0.152 µM	0.0314 µM	0.0541 µM		
CCN(CC)CCNC(=O)c1c(C)[nH]c(/C=C2\C(=O)Nc3ccc(F)cc32)c1C [SUNITINIB]	> 8 µM	> 8 µM											> 8 µM	
OCCCNc1cc(-c2ccnc(Nc3cccc(Cl)c3)n2)ccn1	0.135 µM	> 0.256 µM											0.052 µM	
